Reference: article PMC10605010, “Immunotechniques for the Group Determination of Macrolide Antibiotics Traces in the Environment Using a Volume-Mediated Sensitivity Enhancement Strategy” (Biosensors, 2023)
Converted amounts (≈) assume the structure as drawn. Read-outs that look alike come from different tables or passages of the source.

Legend:
[1] = system: anti-BSA-cmoCLA(ae) antibodies; test: Indirect competitive ELISA (icELISA), variants by coating antigen; type: binding, rabbit; conditions: for CR: CLA = 100
Experimental: In present work, we investigated and compared several new-designed and previously established coating antigens, which were adsorbed on the 96-well Costar plates from 0.1 to 3.0 µg/mL solutions in CBB (pH 9.6) overnight at 4 °C. […] Solutions of these analytes (1 pg/mL–1 μg/mL) were added to wells of the plate along with anti-cmoCLA antibody in PBS-T with 1%BSA and incubated for 1 h at 25 °C in plate-shaker ST-3 L (ELMI Ltd. laboratory equipment, Riga, Latvia). GAR-HRP was used to detect antigen-antibody formed complexes for 1 h at 37 °C. The activity of the bound enzyme was detected using TMB-substrate mixture, and the intensity of colored product was read at 450 nm using a LisaScan spectrophotometer (Erba Mannheim, Czech Republic). […] The relative antibody-binding absorbance (B/B0) was determined for each concentration of analyte and used to construct a calibration curve as B/B0 versus the concentration. Structurally related macrolides CLA, ESE, ROX, AZI, DIR, TUL, and OLE were analyzed for their cross-reactions. […] Assay sensitivity, limit of detection (LOD), and working range of the assay were set as values of IC50, IC10, and IC20-IC80 range, respectively.

[2] = system: coated anti-BSA-cmoCLA(ae) antibody; test: Direct competitive antibody-coated ELISA (dcELISA) with HRP-aecAZI tracer; type: binding, rabbit; conditions: 1 h
From the text: (§1) To implement these assay formats, the IgG fraction was first isolated from antiserum via the double precipitation method using caprylic acid and ammonium sulfate, described in detail in [22]. The principle of the assays is based on competition between analyte and enzyme-labeled antigen (HRP-aecAZI) for binding to an antibody coated on the plate (dcELISA) or coupled covalently to Sepharose beads. The latter immunosorbent was used in the immunobeads assay (IBA) and immunofiltration assay (IFA).
dcELISA plate format. The direct competitive antibody-coated ELISA format was carried out in accordance with the generally accepted procedure. The antibody coated on polystyrene plates could capture the free analyte from the tested sample and enzyme-labeled hapten in a competitive manner. The sequence of manipulations corresponded to those described for a similar format earlier. The role of the volume ratios between the standard (25–275 µL) and HRP-aecAZI (25–175 µL) on the sensitivity of the assay was studied in this work.
As a result of interactions between antibody and a number of coating antigens, we have identified a preferred hapten and a rational antigen design for the most sensitive and broad-specific detection. Since the aecAZI hapten conjugated to the carrier via a zero-length arm yielded the desired assay performance, we prepared the same design enzyme-labeled hapten for the direct competitive assay format. […] Thus, a direct competitive assay format was optimized and established based on coated anti-BSA-cmoCLA(ae) antibody and HRP-aecAZI × 3 as a tracer.

[3] = system: Anti-CLA(IgG) coupled to Sepharose beads; test: Immunobead assay (IBA); type: binding, rabbit; conditions: 2 h
Experimental: Sepharose 4B or Sepharose-CL-2B (Pharmacia, Uppsala, Sweden) were washed with water on a porous glass filter and then squeezed out with a soft press from excess moisture. The washed beads (2 g) were placed in a vial with sodium periodate solution (60 mg in 5 mL H2O) and mixed with a rotary mixer (ELMI Ltd. laboratory equipment, Riga, Latvia) for 45 min. An additional 30 min rotation continued after the addition of ethylene glycol (250 µL). The beads were then washed with water and finally with CBB (pH 9.6) squeezed mildly out. Each of the activated sorbents was placed in a vial for mixing with anti-cmoCLA IgG (10 mg) in 2 mL CBB (pH 9.6) for 48 h at 4 °C. The excess antibody was squeezed out. The beads were then washed with water and placed in a sodium borohydride solution (4 mg/4 mL) for 1 h with occasional shaking. After the final washing with water and PSBT, the resulting immune sorbents were stored at 4 °C in 10 mL of PSBT preserved with Merthiolate (1 mg).
as §1
Immunobead assay (IBA). Standard solution of analyte or tested sample in 1–2 mL PBST were accomplished with HRP-aecAZI and immunosorbents Anti-CLA(IgG)-S4B or Anti-CLA(IgG)-SCL2B taken in optimized concentration/volume and incubated for 0.5–3 h periods at a rotary mixer mixing (15 rpm). The beads were then pelleted using centrifugation (5 min, 3400× g) and suspended to the original volume with PBST. After three washing cycles, the bead pellet was suspended with TMB-substrate mixture (200 μL), and 8 M sulfuric acid (50 μL) was added 30 min later to terminate enzymatic reaction. The intensity of the colored product was measured using a plate reader at 450 nm.

[4] = system: antibody, immunogen Commercial; set-up: method as in doi:10.1007/s12161-015-0130-x; conditions: milk; cited from earlier work
[5] = system: antibody, immunogen Commercial; set-up: method as in PMID 26497839; conditions: milk; cited from earlier work
[6] = system: antibody to immunogen BSA-cmoERY(ma); set-up: method as in PMID 25308648; conditions: milk, cited from earlier work
[7] = system: antibody to immunogen BSA-cmoCLA(ae); set-up: method as in doi:10.1039/C9QM00429G; conditions: milk; CLA = 100; cited from earlier work
[8] = system: antibody to immunogen BSA-cmoCLA(ae); set-up: method as in PMID 32693204; conditions: breast milk; CLA = 100; cited from earlier work
[9] = coating antigen OVA-aecAZI(dma)
[10] = coating Ab 100 µL, standard/sample 25 µL
[11] = coating Ab 100 µL, standard/sample 50 µL
[12] = coating Ab 100 µL, standard/sample 100 µL
[13] = coating Ab 100 µL, standard/sample 200 µL
[14] = coating Ab 100 µL, standard/sample 275 µL
[15] = coating Ab 200 µL, standard/sample 275 µL
[16] = coating Ab 300 µL, standard/sample 275 µL
[17] = Ab volume 10 µL, standard/sample 1000 µL
[18] = Ab volume 20 µL, standard/sample 2000 µL

Compound: CC[C@H]1OC(=O)[C@H](C)[C@@H](O[C@H]2C[C@@](C)(OC)[C@@H](O)[C@H](C)O2)[C@H](C)[C@@H](O[C@@H]2O[C@H](C)C[C@H](N(C)C)[C@H]2O)[C@](C)(O)C[C@@H](C)C(=O)[C@H](C)[C@@H](O)[C@]1(C)O [ERY, Erythromycin]
- IC50 ([1]; coating antigen OVA(pi)-aecAZI): 0.042 ng/mL (≈ 0.0572 nM)
- LOD ([1]; coating antigen OVA(pi)-aecAZI, water): 0.01 ng/mL
- CR ([1]; coating antigen OVA(pi)-aecAZI): 105%
- IC50 [1, 9]: 0.223 ng/mL (≈ 0.304 nM)
- CR [1, 9]: 70.4%
- IC50 ([1]; coating antigen OVA-aecAZI(ga)): 0.049 ng/mL (≈ 0.0668 nM)
- CR ([1]; coating antigen OVA-aecAZI(ga)): 87.8%
- IC50 ([1]; coating antigen OVA-cmoERY(ae)): 0.240 ng/mL (≈ 0.327 nM)
- CR ([1]; coating antigen OVA-cmoERY(ae)): 71.7%
- IC10 (LOD) [2, 10]: 0.04 ng/mL (≈ 0.0545 nM)
- IC20-IC80 (working range) [2, 10]: 0.097 to 0.907 ng/mL
- IC50 [2, 10]: 0.31 ng/mL (≈ 0.422 nM)
- IC10 (LOD) [2, 11]: 0.04 ng/mL (≈ 0.0545 nM)
- IC20-IC80 (working range) [2, 11]: 0.085 to 0.565 ng/mL
- IC50 [2, 11]: 0.23 ng/mL (≈ 0.313 nM)
- IC10 (LOD) [2, 12]: 0.008 ng/mL (≈ 0.0109 nM)
- IC20-IC80 (working range) [2, 12]: 0.037 to 0.400 ng/mL
- IC50 [2, 12]: 0.14 ng/mL (≈ 0.191 nM)
- IC10 (LOD) [2, 13]: 0.011 ng/mL (≈ 0.015 nM)
- IC20-IC80 (working range) [2, 13]: 0.029 to 0.253 ng/mL
- IC50 [2, 13]: 0.098 ng/mL (≈ 0.134 nM)
- IC10 (LOD) [2, 14]: 0.024 ng/mL (≈ 0.0327 nM)
- IC20-IC80 (working range) [2, 14]: 0.043 to 0.184 ng/mL
- IC50 [2, 14]: 0.091 ng/mL (≈ 0.124 nM)
- IC10 (LOD) [2, 15]: 0.002 ng/mL (≈ 0.00273 nM)
- IC20-IC80 (working range) [2, 15]: 0.008 to 0.119 ng/mL
- IC50 [2, 15]: 0.034 ng/mL (≈ 0.0463 nM)
- IC10 (LOD) [2, 16]: 0.006 ng/mL (≈ 0.00818 nM)
- IC20-IC80 (working range) [2, 16]: 0.012 to 0.119 ng/mL
- IC50 [2, 16]: 0.040 ng/mL (≈ 0.0545 nM)
- IC10 (LOD) [3, 17]: 0.003 ng/mL (≈ 0.00409 nM)
- IC20-IC80 (working range) [3, 17]: 0.006 to 0.056 ng/mL
- IC50 [3, 17]: 0.018 ng/mL (≈ 0.0245 nM)
- IC10 (LOD) [3, 18]: 0.001 ng/mL (≈ 0.00136 nM)
- IC20-IC80 (working range) [3, 18]: 0.003 to 0.057 ng/mL
- IC50 [3, 18]: 0.012 ng/mL (≈ 0.0164 nM)
- CR [4]: 100%
- LOD [4]: ni//5 ng/mL
- CR [5]: 100%
- LOD [5]: ni//0.13 ng/mL
- CR ([6]; ERY = 100): 100%
- IC50 [6]: 0.94 ng/mL (≈ 1.28 nM)
- LOD [6]: 0.3 ng/mL
- CR [7]: 30.1%
- CR [8]: 7.5%
